The values below come from patent US10112929B2, “Lactams as inhibitors of rock” (BRISTOL-MYERS SQUIBB COMPANY, priority 2015, dated 2018).

Read-outs that look alike come from different tables or passages of the source.

Assay [1] deals with neointimal formation in rats. To be noted: cited from earlier work.
Assay [2] relates to spontaneously hypertensive rat, renal hypertensive rat and deoxycortisone acetate salt hypertensive rat models. The following applies: cited from earlier work.
In assay [3] the test system is Dahl salt-sensitive rats. To be noted: rat, in vivo; cited from earlier work.
The test system of assay [4] is porcine model of IL-1 beta-induced coronary stenosis. To be noted: long term treatment; cited from earlier work.
For assay [5], the system named is rat stroke model. To be noted: in vivo; cited from earlier work.
The target of assay [6] is ROCK2 (Homo sapiens (Human), UniProt O75116).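 Also: rho kinase enzyme reaction halted with EDTA, phospho- and non-phospho peptide separated for read-out, kinase activity inhibition derived across a dose-response series, DMSO under 2%.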

Broadly, the IC50 is the concentration at which inhibition is half-maximal. Read a high IC50 as weaker potency.

Sequence of ROCK2 (O75116 whole entry, species assumed): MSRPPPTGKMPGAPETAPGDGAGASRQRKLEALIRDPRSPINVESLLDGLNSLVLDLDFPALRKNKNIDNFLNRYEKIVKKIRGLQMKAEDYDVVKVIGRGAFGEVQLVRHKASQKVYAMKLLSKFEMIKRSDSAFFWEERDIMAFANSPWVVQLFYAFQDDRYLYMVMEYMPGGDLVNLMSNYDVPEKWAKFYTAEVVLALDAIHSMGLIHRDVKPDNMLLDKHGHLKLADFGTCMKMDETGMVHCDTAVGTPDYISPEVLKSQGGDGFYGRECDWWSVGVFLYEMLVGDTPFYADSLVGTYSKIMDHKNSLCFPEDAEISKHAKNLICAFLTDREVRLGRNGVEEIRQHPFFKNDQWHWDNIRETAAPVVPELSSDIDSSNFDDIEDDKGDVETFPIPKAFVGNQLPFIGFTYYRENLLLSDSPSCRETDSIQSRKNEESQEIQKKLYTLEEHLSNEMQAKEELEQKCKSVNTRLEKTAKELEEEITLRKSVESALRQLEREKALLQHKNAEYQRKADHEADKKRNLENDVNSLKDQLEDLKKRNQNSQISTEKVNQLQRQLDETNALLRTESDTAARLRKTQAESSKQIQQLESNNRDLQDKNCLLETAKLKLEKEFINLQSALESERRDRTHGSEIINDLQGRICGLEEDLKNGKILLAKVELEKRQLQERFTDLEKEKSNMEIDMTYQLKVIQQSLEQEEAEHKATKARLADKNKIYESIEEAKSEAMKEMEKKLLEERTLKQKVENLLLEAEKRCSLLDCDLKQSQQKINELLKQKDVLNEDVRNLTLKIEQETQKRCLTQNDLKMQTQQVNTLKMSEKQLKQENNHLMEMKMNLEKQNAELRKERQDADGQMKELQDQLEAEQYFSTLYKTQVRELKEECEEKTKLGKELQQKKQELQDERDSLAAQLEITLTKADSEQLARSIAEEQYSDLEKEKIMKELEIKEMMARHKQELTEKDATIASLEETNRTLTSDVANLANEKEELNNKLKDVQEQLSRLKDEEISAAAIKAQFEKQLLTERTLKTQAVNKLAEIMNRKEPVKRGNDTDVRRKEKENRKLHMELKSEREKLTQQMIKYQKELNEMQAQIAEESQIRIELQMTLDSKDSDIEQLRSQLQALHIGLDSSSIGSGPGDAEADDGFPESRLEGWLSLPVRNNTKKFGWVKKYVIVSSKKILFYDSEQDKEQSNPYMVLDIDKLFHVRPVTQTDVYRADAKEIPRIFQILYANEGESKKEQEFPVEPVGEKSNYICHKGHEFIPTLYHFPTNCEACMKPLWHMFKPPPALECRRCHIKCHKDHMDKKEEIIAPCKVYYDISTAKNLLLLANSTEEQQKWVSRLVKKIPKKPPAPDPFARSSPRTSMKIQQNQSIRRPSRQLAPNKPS

As for `C[C@@H](N)[C@H]1CC[C@H](C(=O)Nc2ccncc2)CC1` [Example Y-27632], the neointimal formation result in assay [1] is “inhibited neointimal formation”. Moreover, the blood pressure result is listed as “only a minor effect on blood pressure” in assay [2] (control rats) and “significantly decrease blood pressure” in assay [2] (three rat models of hypertension). Moreover, the “ventricular hypertrophy, fibrosis and function” value in assay [3] is “improve ventricular hypertrophy, fibrosis and function”.

In the case of `O=S(=O)(c1cccc2cnccc12)N1CCCNCC1` [fasudil], in assay [4], the coronary constrictive remodeling entry is on record as “promote a regression of coronary constrictive remodeling” and the coronary stenosis result is “progressively reduce coronary stenosis”. The “infarct size and neurologic deficit” value in assay [5] is “reduce both the infarct size and neurologic deficit”.

Take `COc1cccc(NC2CCN(c3ccc(-c4cn[nH]c4)c(F)c3)C2=O)c1` (single isomer, unassigned) [Example 46, 1-(3-fluoro-4-(1H-pyrazol-4-yl)phenyl)-3-((3-methoxyphenyl)amino)pyrrolidin-2-one]: in assay [6], the IC50 was less than 10 nM.

On to `COc1cc(NC2CCN(c3ccc(-c4cn[nH]c4)c(C)n3)C2=O)ccc1F` (single isomer, unassigned) [Example 195, 3-((4-fluoro-3-methoxyphenyl)amino)-1-(6-methyl-5-(1H-pyrazol-4-yl)pyridin-2-yl)pyrrolidin-2-one], for which the IC50 in assay [6] fell in the range of 10 to 100 nM.
